Tests used:
Plasmodium falciparum [1] = assay: NOVARTIS: Inhibition of Plasmodium falciparum 3D7 (drug-susceptible) proliferation in erythrocyte-based infection assay; type: functional, organism-based; details: Plasmodium falciparum, 3D7
Plasmodium falciparum [2] = assay: NOVARTIS: Inhibition of Plasmodium falciparum W2 (drug-resistant) proliferation in erythrocyte-based infection assay; type: functional, organism-based; details: Plasmodium falciparum, W2; read-out: EC50
[3] = NOVARTIS: Cytotoxicity against human hepatocellular carcinoma cell line (Huh7); type: toxicity, cell-based, Huh-7; details: Huh7 cells (hepatocellular carcinoma cell line)

| SMILES | EC50 (Plasmodium falciparum [1]) | EC50 (Plasmodium falciparum [2]) | CC50 [3] |
| --- | --- | --- | --- |
| COc1cc(CNc2cc(OCCOc3ccc(Cl)cc3)cc(C(=O)NC3CCN(Cc4ccccc4)CC3)c2)ccc1OCc1ccccc1 | 902 nM | > 1250 nM | > 12.1 µM |
| O=S(=O)(c1ccccc1)N1CCN(CC2CNCCO2)CC1 (stereo unspecified) | 767 nM | 332 nM | 3.22 µM |
| CCCCNc1cc(C)nc(NCc2ccccc2)n1 | 944 nM | 1020 nM | > 10 µM |
| COc1cc(C=NNc2nc3nonc3nc2Nc2ccc(Cl)cc2)ccc1O | > 1250 nM | 1030 nM | > 10 µM |
| C/C=C1/C[C@H]2[C@@H](OC)Nc3cc(O)c(OC)cc3C(=O)N2C1 | 1030 nM | 875 nM | 8.49 µM |
| CCc1c(C)nc(SCC(=O)NNC(C)=O)nc1O | > 1250 nM | > 1030 nM | > 10 µM |
| O=C(CSc1nc2ccccc2[nH]1)Nc1ccc2c(c1)OCO2 | > 1250 nM | > 1040 nM | > 10 µM |
| Fc1ccccc1Nc1nc(NCc2ccccc2)c2ccccc2n1 | 463 nM | 918 nM | 8.86 µM |
| CCN1CCN(C2CCN(Cc3cc4ccc(F)cc4n(CCSc4ccccc4)c3=O)CC2)CC1 | 715 nM | 560 nM | 5.48 µM |
| CCCn1c(SCCNC(=O)NCC)nc(-c2ccccc2)c1-c1ccccc1 | > 1400 nM | > 1030 nM | > 10 µM |
| CCC(O)CN(c1ccccc1)c1ccccc1 (stereo unspecified) | > 1250 nM | > 1020 nM | > 10 µM |
| C/C(=C\c1ccccc1)CN(C(=O)c1ccc(C(C)(C)C)cc1)C(C)C | 217 nM | 535 nM | > 5.25 µM |
| O=C(C1CCN(c2cccc3c2C(=O)N(C2CC2)C3=O)CC1)N1CCC(O)(c2ccc(Cl)cc2)CC1 | > 1250 nM | > 1020 nM | > 10 µM |
| CCOc1ccc(-n2nc(C(=O)NCCCN(C)Cc3ccccc3)c3ccccc3c2=O)cc1 | > 11200 nM | 10300 nM | > 100 µM |
| CCCCCCN(C(=O)c1ccc(C(C)(C)C)cc1)C(CC)c1nc2ccccc2c(=O)n1-c1ccc(F)cc1 (stereo unspecified) | 795 nM | 1020 nM | > 10 µM |
| CC(C)(C)c1ccc(Oc2ccc(N3C(=O)C4CC=CCC4C3=O)cc2)cc1 (stereo unspecified) | > 1250 nM | > 1020 nM | > 10 µM |
| CCCNC(=O)CCCCCSc1nc2ccccc2c(=O)n1-c1ccc(F)cc1 | 780 nM | > 1180 nM | > 11.5 µM |
| CCCSc1nc(N)c(NC(=O)c2ccco2)c(=O)[nH]1 | > 361 nM | > 1020 nM | > 10 µM |
| O=C1C(Sc2nnc[nH]2)=CC(=NS(=O)(=O)c2cccs2)c2ccccc21 | 1530 nM | 707 nM | 6.91 µM |
| CCCCNC(=O)c1ccc2c(c1)N=C(c1cccnc1)N(CCN1CCOCC1)C2 | > 1250 nM | > 1060 nM | > 10.4 µM |
| CCOC(=O)C1=C(C)N=c2sc(=Cc3ccc(I)o3)c(=O)n2C1c1ccccc1Cl (stereo unspecified) | 1330 nM | 570 nM | > 5.49 µM |
| COc1ccc(C2C(C(=O)Nc3cc(C)on3)c3ccccc3C(=O)N2C2CCCCC2)cc1 (stereo unspecified) | 895 nM | > 1030 nM | > 10 µM |
| CCOc1cc(C(Nc2cc(C)ccn2)c2ccc3cccnc3c2O)ccc1OCc1ccccc1 (stereo unspecified) | > 1340 nM | 1030 nM | > 10 µM |
| ClC12CC3CC(C1)CC(n1nnc4ccccc41)(C3)C2 | > 1250 nM | > 1020 nM | > 10 µM |
| CC(=O)Oc1ccc(C(=O)C(C(C)=O)c2ccccc2)c(OC(C)=O)c1 (stereo unspecified) | > 1390 nM | > 1020 nM | > 10 µM |
| CCC(/C=C1\Sc2ccc(OC)cc2N1CCCS(=O)(=O)O)=C\c1sc2ccc(OC)cc2[n+]1CCCS(=O)(=O)O | 473 nM | 1040 nM | 10.1 µM |
| COc1cccc(OC)c1C(=O)Nn1c(-c2cccc(C)c2)nc2ccccc2c1=O | > 1250 nM | > 1030 nM | > 10 µM |

Reference: ChEMBL document CHEMBL1156829 (Proc Natl Acad Sci U S A, 2008)
